Measured values from US12677832B2, “Oxadiazole compounds for controlling or preventing phytopathogenic fungi” (PI INDUSTRIES LTD., priority 2019, dated 2026).

Tests used:
Phakopsora pachyrhizi = Phakopsora pachyrhizi Test in Soybean (preventive spray); type: in vivo; conditions: preventive spray on Soybean plants, inoculated one day after treatment, disease severity vs untreated control
Method: Example 7: Phakopsora pachyrhizi Test in Soybean Compounds were dissolved in 2% dimethyl sulfoxide/acetone and then mixed with water containing an emulsifier to a calibrated spray volume of 50 mL. This 50 mL spray solution was poured into spray bottles for further applications. To test the preventive activity of compounds, healthy young Soybean plants, raised in the greenhouse, were sprayed with the active compound preparation at the stated application rates inside the spray cabinets using hollow cone nozzles. One day after treatment, the plants were inoculated with a spore suspension containing 2×10^5Phakopsora pachyrhizi conidia. The inoculated plants were then kept in a greenhouse chamber at 22-24° C. temperature and 80-90% relative humidity for disease expression. A visual assessment of the compound's performance was carried out by rating the disease severity (0-100% scale) on treated plants 3, 7, 10 and 15 days after application. Efficacy (% control) of the compounds was calculated by comparing the disease rating in the treatment with the one of the untreated control. The sprayed plants were also assessed for plant compatibility by recording symptoms like necrosis, chlorosis and stunting.

Pyricularia oryzae = experiment: microbe, parasite or virus in culture; type: cell-based; conditions: 168 h, read-out: control

Compound	pest or weed control at 500 ppm (Phakopsora pachyrhizi)	inhibition of growth at 300 ppm (Pyricularia oryzae)
Cc1cc(F)cc(OCC(=O)c2ccc(-c3noc(C(F)(F)F)n3)cc2)c1 [Compound 41, 2-(3-fluoro-5-methylphenoxy)-1-(4-(5-(trifluoromethyl)-1,2,4-oxadiazol-3-yl)phenyl)ethan-1-one]	≥ 70%	–
O=C(COc1cc(F)cc(Cl)c1)c1ccc(-c2noc(C(F)(F)F)n2)cc1 [Compound 42, 2-(3-chloro-5-fluorophenoxy)-1-(4-(5-(trifluoromethyl)-1,2,4-oxadiazol-3-yl)phenyl)ethan-1-one]	≥ 70%	–
O=C(COc1ccnc(Cl)c1)c1ccc(-c2noc(C(F)(F)F)n2)cc1 [Compound 44, 2-((2-chloropyridin-4-yl)oxy)-1-(4-(5-(trifluoromethyl)-1,2,4-oxadiazol-3-yl)phenyl)ethan-1-one]	≥ 70%	–
Cc1ccc(C(F)(F)F)c(OCC(=O)c2ccc(-c3noc(C(F)(F)F)n3)cc2)n1 [Compound 45, 2-((6-methyl-3-(trifluoromethyl)pyridin-2-yl)oxy)-1-(4-(5-(trifluoromethyl)-1,2,4-oxadiazol-3-yl)phenyl)ethan-1-one]	≥ 70%	–
O=C(COc1cccnc1Cl)c1ccc(-c2noc(C(F)(F)F)n2)cc1 [Compound 46, 2-((2-chloropyridin-3-yl)oxy)-1-(4-(5-(trifluoromethyl)-1,2,4-oxadiazol-3-yl)phenyl)ethan-1-one]	≥ 70%	–
O=C(COc1ccc(F)nc1)c1ccc(-c2noc(C(F)(F)F)n2)cc1 [Compound 47, 2-((6-fluoropyridin-3-yl)oxy)-1-(4-(5-(trifluoromethyl)-1,2,4-oxadiazol-3-yl)phenyl)ethan-1-one]	≥ 70%	–
Cn1ccc(OCC(=O)c2ccc(-c3noc(C(F)(F)F)n3)cc2)n1 [Compound 50, 2-((1-methyl-1H-pyrazol-3-yl)oxy)-1-(4-(5-(trifluoromethyl)-1,2,4-oxadiazol-3-yl)phenyl)ethan-1-one]	≥ 70%	–
O=C(CSc1ccc(Cl)c(Cl)c1)c1ccc(-c2noc(C(F)(F)F)n2)cc1 [Compound 52, 2-((3,4-dichlorophenyl)thio)-1-(4-(5-(trifluoromethyl)-1,2,4-oxadiazol-3-yl)phenyl)ethan-1-one]	≥ 70%	–
O=C(CSc1ccc(Cl)cc1)c1ccc(-c2noc(C(F)(F)F)n2)cc1 [Compound 53, 2-((4-chlorophenyl)thio)-1-(4-(5-(trifluoromethyl)-1,2,4-oxadiazol-3-yl)phenyl)ethan-1-one]	≥ 70%	–
O=C(CSc1cccc(Cl)c1)c1ccc(-c2noc(C(F)(F)F)n2)cc1 [Compound 54, 2-((3-chlorophenyl)thio)-1-(4-(5-(trifluoromethyl)-1,2,4-oxadiazol-3-yl)phenyl)ethan-1-one]	≥ 70%	–
O=C(CSCc1ccccc1)c1ccc(-c2noc(C(F)(F)F)n2)cc1 [Compound 56, 2-(benzylthio)-1-(4-(5-(trifluoromethyl)-1,2,4-oxadiazol-3-yl)phenyl)ethan-1-one]	≥ 70%	–
COc1ccc(CSCC(=O)c2ccc(-c3noc(C(F)(F)F)n3)cc2)cc1 [Compound 57, 2-((4-methoxybenzyl)thio)-1-(4-(5-(trifluoromethyl)-1,2,4-oxadiazol-3-yl)phenyl)ethan-1-one]	≥ 70%	–
CC(SCC(=O)c1ccc(-c2noc(C(F)(F)F)n2)cc1)c1ccccc1 (stereo not shown) [Compound 58, 2-((1-phenylethyl)thio)-1-(4-(5-(trifluoromethyl)-1,2,4-oxadiazol-3-yl)phenyl)ethan-1-one]	≥ 70%	–
O=C(CSc1ccccc1)c1ccc(-c2noc(C(F)(F)F)n2)cc1 [Compound 60, 2-(phenylthio)-1-(4-(5-(trifluoromethyl)-1,2,4-oxadiazol-3-yl)phenyl)ethan-1-one]	≥ 70%	–
COc1ccccc1SCC(=O)c1ccc(-c2noc(C(F)(F)F)n2)cc1 [Compound 63, 2-((2-methoxyphenyl)thio)-1-(4-(5-(trifluoromethyl)-1,2,4-oxadiazol-3-yl)phenyl)ethan-1-one]	≥ 70%	–
O=C(CSc1cccc(F)c1)c1ccc(-c2noc(C(F)(F)F)n2)cc1 [Compound 64, 2-((3-fluorophenyl)thio)-1-(4-(5-(trifluoromethyl)-1,2,4-oxadiazol-3-yl)phenyl)ethan-1-one]	≥ 70%	–
O=C(CSc1ccccc1F)c1ccc(-c2noc(C(F)(F)F)n2)cc1 [Compound 65, 2-((2-fluorophenyl)thio)-1-(4-(5-(trifluoromethyl)-1,2,4-oxadiazol-3-yl)phenyl)ethan-1-one]	≥ 70%	–

Compound	pest or weed control at 500 ppm (Phakopsora pachyrhizi)	inhibition of growth at 300 ppm (Pyricularia oryzae)
Cc1cccc(SCC(=O)c2ccc(-c3noc(C(F)(F)F)n3)cc2)c1 [Compound 67, 2-(m-tolylthio)-1-(4-(5-(trifluoromethyl)-1,2,4-oxadiazol-3-yl)phenyl)ethan-1-one]	≥ 70%	–
CC(C)(C)SCC(=O)c1ccc(-c2noc(C(F)(F)F)n2)cc1 [Compound 70, 2-(tert-butylthio)-1-(4-(5-(trifluoromethyl)-1,2,4-oxadiazol-3-yl)phenyl)ethan-1-one]	–	≥ 70%
O=C(CSc1ccc(C(F)(F)F)cc1)c1ccc(-c2noc(C(F)(F)F)n2)cc1 [Compound 71, 1-(4-(5-(trifluoromethyl)-1,2,4-oxadiazol-3-yl)phenyl)-2-((4-(trifluoromethyl)phenyl)thio)ethan-1-one]	–	≥ 70%
O=C(C[S+]([O-])c1ccc(Cl)cc1)c1ccc(-c2noc(C(F)(F)F)n2)cc1 (stereo not shown) [Compound 78, 2-((4-chlorophenyl)sulfinyl)-1-(4-(5-(trifluoromethyl)-1,2,4-oxadiazol-3-yl)phenyl)ethan-1-one]	≥ 70%	–
CC(c1ccccc1)[S+]([O-])CC(=O)c1ccc(-c2noc(C(F)(F)F)n2)cc1 (stereo not shown) [Compound 82, 2-((1-phenylethyl)sulfinyl)-1-(4-(5-(trifluoromethyl)-1,2,4-oxadiazol-3-yl)phenyl)ethan-1-one]	≥ 70%	–
O=C(C[S+]([O-])c1ccccc1)c1ccc(-c2noc(C(F)(F)F)n2)cc1 (stereo not shown) [Compound 84, 2-(phenylsulfinyl)-1-(4-(5-(trifluoromethyl)-1,2,4-oxadiazol-3-yl)phenyl)ethan-1-one]	≥ 70%	–
O=C(C[S+]([O-])c1cccc(C(F)(F)F)c1)c1ccc(-c2noc(C(F)(F)F)n2)cc1 (stereo not shown) [Compound 85, 1-(4-(5-(trifluoromethyl)-1,2,4-oxadiazol-3-yl)phenyl)-2-((3-(trifluoromethyl)phenyl)sulfinyl)ethan-1-one]	≥ 70%	–
Cc1ccc([S+]([O-])CC(=O)c2ccc(-c3noc(C(F)(F)F)n3)cc2)cc1 (stereo not shown) [Compound 86, 2-(p-tolylsulfinyl)-1-(4-(5-(trifluoromethyl)-1,2,4-oxadiazol-3-yl)phenyl)ethan-1-one]	≥ 70%	–
O=C(C[S+]([O-])c1cccc(F)c1)c1ccc(-c2noc(C(F)(F)F)n2)cc1 (stereo not shown) [Compound 87, 2-((3-fluorophenyl)sulfinyl)-1-(4-(5-(trifluoromethyl)-1,2,4-oxadiazol-3-yl)phenyl)ethan-1-one]	≥ 70%	–
O=C(C[S+]([O-])c1ccccc1F)c1ccc(-c2noc(C(F)(F)F)n2)cc1 (stereo not shown) [Compound 88, 2-((2-fluorophenyl)sulfinyl)-1-(4-(5-(trifluoromethyl)-1,2,4-oxadiazol-3-yl)phenyl)ethan-1-one]	≥ 70%	–
O=C(CS(=O)(=O)c1ccc(Cl)c(Cl)c1)c1ccc(-c2noc(C(F)(F)F)n2)cc1 [Compound 94, 2-((3,4-dichlorophenyl)sulfonyl)-1-(4-(5-(trifluoromethyl)-1,2,4-oxadiazol-3-yl)phenyl)ethan-1-one]	≥ 70%	–
O=C(CS(=O)(=O)c1ccc(Cl)cc1)c1ccc(-c2noc(C(F)(F)F)n2)cc1 [Compound 95, 2-((4-chlorophenyl)sulfonyl)-1-(4-(5-(trifluoromethyl)-1,2,4-oxadiazol-3-yl)phenyl)ethan-1-one]	≥ 70%	–
O=C(CS(=O)(=O)c1ccc(F)c(F)c1)c1ccc(-c2noc(C(F)(F)F)n2)cc1 [Compound 96, 2-((3,4-difluorophenyl)sulfonyl)-1-(4-(5-(trifluoromethyl)-1,2,4-oxadiazol-3-yl)phenyl)ethan-1-one]	≥ 70%	–
COc1ccc(CS(=O)(=O)CC(=O)c2ccc(-c3noc(C(F)(F)F)n3)cc2)cc1 [Compound 98, 2-((4-methoxybenzyl)sulfonyl)-1-(4-(5-(trifluoromethyl)-1,2,4-oxadiazol-3-yl)phenyl)ethan-1-one]	≥ 70%	–
O=C(CS(=O)(=O)C1CCCCC1)c1ccc(-c2noc(C(F)(F)F)n2)cc1 [Compound 100, 2-(cyclohexylsulfonyl)-1-(4-(5-(trifluoromethyl)-1,2,4-oxadiazol-3-yl)phenyl)ethan-1-one]	≥ 70%	–
O=C(CS(=O)(=O)c1cccc(C(F)(F)F)c1)c1ccc(-c2noc(C(F)(F)F)n2)cc1 [Compound 103, 1-(4-(5-(trifluoromethyl)-1,2,4-oxadiazol-3-yl)phenyl)-2-((3-(trifluoromethyl)phenyl)sulfonyl)ethan-1-one]	≥ 70%	–
O=C(CN1CCOCC1)c1ccc(-c2noc(C(F)(F)F)n2)cc1 [Compound 136, 2-morpholino-1-(4-(5-(trifluoromethyl)-1,2,4-oxadiazol-3-yl)phenyl)ethan-1-one]	≥ 70%	–
